Where a SMILES comes first, the peptide text is derived from it.
Assays:
VEGFR1D2 = experiment: Microscale thermophoresis (MST) binding of VGB3 to VEGFR1D2
Experimental: Previously, a tight association between VEGFR1 D2 and VEGF has also been reported (113pM).[4]
The binding affinity of peptide to its cognate receptor was measured by Microscale thermophoresis (MST) on a Nanotemper Monolith NT.115 instrument (Nanotemper Technologies GmbH). Purified VEGFR1D2 was freshly labeled with the Monolith His-Tag RED-tris-NTA labeling dye according to the supplied protocol (Nanotemper Technologies, GmbH). The labeled protein was concentrated using a PES centrifugation filter (3 kDa cutoff; VWR). Measurements were done in MST buffer (50 mM Tris, 250 mM NaCl, pH=7) in standard capillaries (K002; Nanotemper Technologies GmbH). The final concentrations of either labeled protein in the assay were 25 nM. The ligands (VGB3) was titrated in 1:1 dilutions following manufacturer’s recommendations and starting from 0.25 mM. All binding reactions were incubated for 10 min at room temperature followed by centrifugation at 20,000 g before loading into capillaries. All measurements were performed in triplicate using automatically assigned 20% LED and 60% MST power; Laser On-time was 30 sec and Laser Off time was 5 sec.

HUVEC = experiment: Wound healing assay (HUVEC migration); format: cell-based, human; conditions: compared with control; VGB3 0, 0.015, 0.03, 0.061 μM, 0.03 μg/ml VEGF-A, 2% FBS, 24 h
Experimental: 3 × 10^3 HUVECs were grown to confluence in 96-well plate. The monolayer was mechanically wounded using a sterile pipette tip followed by washing with PBS. The cells were incubated in the serum-starved DMEM medium containing 2% FBS and different concentrations (0, 0.015, 0.03, 0.061 μM) of VGB3 in the presence of (0.03 μg.ml^-1) VEGF-A for 24 h. Then HUVECs were washed with PBS two times and fixed using 4% paraformaldehyde at room temperature. After staining the cells with Giemsa, photographs were taken under a microscope (scale bar: 20 μm; Olympus BX-51, Japan) immediately and after 24 h incubation at the same location. Data are expressed as the average percentage wound closure for each group (n=6) of initial migrated cells at time 0 (T0), or as the percentage inhibition compared with a time-matched control. The wound area (the open area of the scratch) was quantified using ImageJ: (1 - (wound area at 24 h / wound area at 0 h))×100.

4T1 tumor tissues = experiment: Immunohistochemistry / TUNEL of excised 4T1 tumors; format: in vivo, Female BALB/c mice; conditions: VGB3 0.2 mg/kg vs PBS, n = 6
Experimental: (§1) Female BALB/c mice (5–7 weeks) were purchased from the Laboratory Animal Center of the Iran Pasteur Institute and maintained under standardized environmental conditions: 12 h light-dark phases, with free access to food and water. For treatment with VGB3, Tumor cells (4T1; 1×10^6 cells/500 μl or 1×10^5 cells/50 μl) were injected subcutaneously into the right flanks of mice (n=3–5). To generate the metastatic model, 4T1 tumor models were sterilized, excised from the breast cancer-bearing BALB/c mice, cut into pieces of <0.3 cm3, and subcutaneously implanted into the animals' right flanks under ketamine (100 mg/kg, i.p.) and xylazine (10 mg/kg, i.p.) anesthesia. Animals carrying tumors of size ~100mm3 were randomized to 6 mice/group (n=6). The treatment groups received 0.02, 0.1, 0.2 or 0.5 mg/kg of VGB3 on alternate days and the control group received PBS i.v. into the mice for 19 days from day 13. The tumor volume was measured every 5 days by a digital Vernier caliper (Mitutoyo, Japan), using the following formula: v=a^2×b×0.52 (where a is the shortest and b is the longest diameter). All studies were performed under the guidelines and with the approval of the Institutional Animal Care and Use Committee (IACUC) of Tehran University of Medical Sciences.
Excised tumor tissues for immunohistochemical (IHC) analysis were fixed in formalin (4%), embedded in paraffin, sectioned, and stained with hematoxylin-eosin (H&E). IHC was followed by heat-induced epitope retrieval in a buffer at pH 9.0. IHC staining for CD31 and CD34 (to assign MVD), Ki67 (to determine the percentage of Ki67-positive cells), and P53 and Bcl-2 (to determine the fraction of apoptotic cells relative to total cells) was performed on formalin-fixed paraffin-embedded sections. Staining for cell death with TUNEL (terminal deoxynucleotidyl transferase nick-end labeling)) was performed, followed by enzymatic development in diaminobenzidine (DAB) (Invitrogen, Carlsbad, California, USA) detection and counter-staining in hematoxylin. Images were acquired by microscopy (Olympus BX-51, Japan). Numbers of positive cells were determined by analyzing five random tissue samples under scale bars 100 and 20 μm, with quantification using ImageJ.

[1] = Body weight of tumor-bearing mice; format: in vivo, Female BALB/c mice; conditions: VGB3 0.02-0.5 mg/kg i.v., day 13 till 31; two-way ANOVA
Experimental: as §1

**Q.** With `CC(C)C[C@@H]1NC(=O)CNC(=O)[C@H](CC(=O)O)NC(=O)[C@H](CC(=O)O)NC(=O)[C@@H]2CCCN2C(=O)[C@@H]2CCCN2C(=O)[C@H](CCCNC(=N)N)NC(=O)[C@@H](NC(=O)[C@@H](N)CCC(=O)O)CSSC[C@@H](C(=O)O)NC1=O` [VGB3] (HELM PEPTIDE1{E.C.R.P.P.D.D.G.L.C}$PEPTIDE1,PEPTIDE1,2:R3-10:R3$$$V2.0) as the compound, how does the Kd (VEGFR1D2; MST, Monolith NT.115, His-Tag RED-tris-NTA labelled VEGFR1D2 25 nM, VGB3 titrated in 1:1 dilutions from 0.25 mM, 50 mM Tris, 250 mM NaCl, pH=7, 10 min at room temperature, triplicate, read-out: dissociation constant (Kd)) read?
**A.** Its Kd is 1.96 ± 0.69 µM.

**Q.** And the “binding constant fold lower than Kd of VEGFA to entire extracellular portion of VEGFR1” value (VEGFR1D2; VGB3 Kd 1.96 μM vs VEGFA Kd ~50 nM)?
**A.** The value was 40 fold.

**Q.** And the “migration of wounded HUVEC monolayers” value (HUVEC)?
**A.** The value was “inhibits migration of wounded HUVEC monolayers compared with the control”.

**Q.** What about the Bcl-2 expression (4T1 tumor tissues; IHC) of the same compound?
**A.** The Bcl-2 expression was “decreased”.

**Q.** What about the CD31 expression (4T1 tumor tissues; IHC) of the same compound?
**A.** The CD31 expression was “decreased”.

**Q.** What about the CD34 expression (4T1 tumor tissues; IHC) of the same compound?
**A.** The CD34 expression was “decreased”.

**Q.** What about the Ki67 expression (4T1 tumor tissues; IHC) of the same compound?
**A.** Its Ki67 expression is “decreased”.

**Q.** What about the p53 expression (4T1 tumor tissues; IHC) of the same compound?
**A.** Its p53 expression is “increased”.

**Q.** What about the TUNEL staining (4T1 tumor tissues) of the same compound?
**A.** Its TUNEL staining is “increased”.

**Q.** What about the “body weight differences vs PBS control” value [1] of the same compound?
**A.** Its value is “no significant (NS) differences”.
